Measured values: patent US6500837B2, “Fused ring system containing indole as M4 selective aza-anthracene muscarinic receptor antagonists” (Warner-Lambert Company, priority 2000, dated 2002)
Several values for one entry are separate records, joined by “and”; a condition that tells them apart may be missing. Equal entries are not always repeated.

Key:
Conditions in all cases: displacement of [3H]-NMS, membranes from transfected CHO cells; separate determinations in one cell
[1] = molecular target: human muscarinic receptor subtype M3 (Hm3) (Homo sapiens, UniProt P20309); experiment: [3H]-NMS receptor binding in CHO cell membranes, Hm3
human muscarinic receptor subtype M3 (Hm3), sequence (P20309 whole entry): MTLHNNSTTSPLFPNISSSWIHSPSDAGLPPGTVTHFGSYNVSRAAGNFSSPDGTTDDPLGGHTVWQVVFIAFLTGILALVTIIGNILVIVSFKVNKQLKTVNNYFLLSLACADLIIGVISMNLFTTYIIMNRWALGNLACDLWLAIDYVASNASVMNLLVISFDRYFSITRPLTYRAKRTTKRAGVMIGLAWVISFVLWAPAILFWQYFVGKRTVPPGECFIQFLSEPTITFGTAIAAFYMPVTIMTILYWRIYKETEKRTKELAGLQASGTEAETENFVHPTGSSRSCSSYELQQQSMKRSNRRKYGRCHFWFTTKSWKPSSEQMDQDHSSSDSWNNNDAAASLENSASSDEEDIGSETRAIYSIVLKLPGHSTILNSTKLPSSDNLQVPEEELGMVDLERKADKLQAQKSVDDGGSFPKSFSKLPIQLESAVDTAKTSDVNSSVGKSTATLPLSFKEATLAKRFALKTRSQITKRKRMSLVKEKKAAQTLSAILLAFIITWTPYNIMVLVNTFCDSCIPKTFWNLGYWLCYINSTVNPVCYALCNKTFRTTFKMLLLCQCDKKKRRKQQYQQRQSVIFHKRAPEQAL
Method: (§1) The compounds of Formula I have shown potent binding affinity for muscarinic receptors and are thus useful as muscarinicing antagonists. […] The compounds are evaluated in standard assays used to measure muscarinic receptor binding. Specifically, the compounds are evaluated for their binding affinity toward five human muscarinic receptor subtypes (M1-M5) by the method of Dorje et al., J. Pharm. Exp. Ther., 1991;256:727-733, incorporated herein by reference. The binding is determined by measuring the displacement of [^3H]-NMS binding using membranes from transfected Chinese hamster ovary (CHO) cells. All compounds are tested two to four times with duplicate tubes (SEM is ≦10% in all cases).

[2] = molecular target: T1, human muscarinic receptor subtype M2 (Hm2) (Homo sapiens, UniProt P08172); experiment: [3H]-NMS receptor binding in CHO cell membranes, Hm2
T1 sequence (P08172 1-466): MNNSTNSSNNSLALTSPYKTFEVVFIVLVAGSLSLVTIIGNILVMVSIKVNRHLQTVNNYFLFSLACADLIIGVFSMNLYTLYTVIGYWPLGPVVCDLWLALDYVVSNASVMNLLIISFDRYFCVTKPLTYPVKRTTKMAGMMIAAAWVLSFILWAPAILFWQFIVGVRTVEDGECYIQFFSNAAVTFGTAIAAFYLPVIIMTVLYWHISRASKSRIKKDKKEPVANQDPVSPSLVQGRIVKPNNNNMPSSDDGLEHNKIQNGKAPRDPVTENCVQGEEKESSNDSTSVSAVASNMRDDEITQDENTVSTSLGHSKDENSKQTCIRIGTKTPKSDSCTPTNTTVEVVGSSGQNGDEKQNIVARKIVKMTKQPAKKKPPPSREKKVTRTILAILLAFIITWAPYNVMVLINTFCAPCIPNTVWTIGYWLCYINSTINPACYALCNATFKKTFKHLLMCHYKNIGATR
Method: as §1

[3] = molecular target: T2, human muscarinic receptor subtype M1 (Hm1) (Homo sapiens, UniProt P11229); experiment: [3H]-NMS receptor binding in CHO cell membranes, Hm1
T2 sequence (P11229 1-460): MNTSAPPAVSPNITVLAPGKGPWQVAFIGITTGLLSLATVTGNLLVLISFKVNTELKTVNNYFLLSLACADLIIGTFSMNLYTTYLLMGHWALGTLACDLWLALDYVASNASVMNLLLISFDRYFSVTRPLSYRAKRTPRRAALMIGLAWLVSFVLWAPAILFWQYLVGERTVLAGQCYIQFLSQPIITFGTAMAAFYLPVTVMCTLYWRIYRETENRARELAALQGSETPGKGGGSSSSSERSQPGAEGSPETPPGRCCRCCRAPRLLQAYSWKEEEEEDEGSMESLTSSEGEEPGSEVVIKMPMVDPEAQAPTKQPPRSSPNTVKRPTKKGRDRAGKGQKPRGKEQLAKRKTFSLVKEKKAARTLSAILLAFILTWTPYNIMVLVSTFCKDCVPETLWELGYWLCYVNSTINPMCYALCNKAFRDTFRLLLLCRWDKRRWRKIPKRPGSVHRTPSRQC
Method: as §1

[4] = molecular target: T3, human muscarinic receptor subtype M4 (Hm4) (Homo sapiens, UniProt P08173); experiment: [3H]-NMS receptor binding in CHO cell membranes, Hm4
T3 sequence (P08173 1-479): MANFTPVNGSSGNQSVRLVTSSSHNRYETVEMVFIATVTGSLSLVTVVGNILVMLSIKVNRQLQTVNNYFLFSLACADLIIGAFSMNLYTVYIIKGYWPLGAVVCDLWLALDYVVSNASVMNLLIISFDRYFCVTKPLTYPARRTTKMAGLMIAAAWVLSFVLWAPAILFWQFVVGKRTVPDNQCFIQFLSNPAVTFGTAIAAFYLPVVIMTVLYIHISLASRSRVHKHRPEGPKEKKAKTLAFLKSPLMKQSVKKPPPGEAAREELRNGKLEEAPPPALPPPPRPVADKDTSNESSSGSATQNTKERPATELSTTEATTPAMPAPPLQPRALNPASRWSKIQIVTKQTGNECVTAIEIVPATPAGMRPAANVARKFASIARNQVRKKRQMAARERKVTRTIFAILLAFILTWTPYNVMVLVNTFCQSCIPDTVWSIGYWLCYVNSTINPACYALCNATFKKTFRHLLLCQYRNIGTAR
Method: as §1

[5] = molecular target: T4, human muscarinic receptor subtype M5 (Hm5) (Homo sapiens, UniProt P08912); experiment: [3H]-NMS receptor binding in CHO cell membranes, Hm5
T4 sequence (P08912 1-532): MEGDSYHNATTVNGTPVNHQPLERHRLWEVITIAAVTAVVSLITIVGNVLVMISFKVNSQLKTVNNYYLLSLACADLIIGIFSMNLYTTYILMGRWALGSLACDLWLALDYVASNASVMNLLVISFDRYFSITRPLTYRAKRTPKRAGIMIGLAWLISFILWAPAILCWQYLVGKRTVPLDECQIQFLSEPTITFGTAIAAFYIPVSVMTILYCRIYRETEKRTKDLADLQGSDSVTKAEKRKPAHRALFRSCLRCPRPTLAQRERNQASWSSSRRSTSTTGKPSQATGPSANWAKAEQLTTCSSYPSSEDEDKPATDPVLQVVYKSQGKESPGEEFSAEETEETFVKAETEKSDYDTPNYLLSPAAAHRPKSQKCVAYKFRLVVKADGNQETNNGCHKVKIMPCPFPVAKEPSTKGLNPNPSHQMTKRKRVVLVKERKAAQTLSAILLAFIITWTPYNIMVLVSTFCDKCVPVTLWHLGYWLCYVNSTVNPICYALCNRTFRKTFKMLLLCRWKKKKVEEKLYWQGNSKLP
Method: as §1

With CCOC(=O)c1c(C)[nH]c2cc(Br)c3c(c12)CN1CCc2cc(OC)ccc2C1C3 (stereo not shown) [Compound 1, 5-Bromo-9-methoxy-2-methyl-6,11,12,13-tetrahydro-3H,6aH-3,12a-diaza-benzo[a]cyclopent[h]anthracene-1-carboxylic acid ethyl ester] the IC50 [1] was > 10 µM and 20 µM, the IC50 [2] was 3 µM and the IC50 [3] was 0.4 µM. For the same molecule, the IC50 [4] was 3 µM and 0.6 µM and the IC50 [5] was 5 µM and 4 µM.
For CCCc1[nH]c2cc(Br)c3c(c2c1C(=O)OCC)CN1CCc2cc(OC)ccc2C1C3 (stereo not shown) [Compound 2, 5-Bromo-9-methoxy-2-propyl-6,11,12,13-tetrahydro-3H6aH-3,12a-diaza-benzo[a]cyclopent[h]anthracene-1-carboxylic acid ethyl ester], the IC50 [1] was greater than 10 µM, the IC50 [2] was 0.8 µM and 4 µM and the IC50 [3] was 0.5 µM and 0.4 µM. The IC50 [4] was 2 µM and 3 µM and the IC50 [5] was 10 µM and 15 µM.
For CCOC(=O)c1c(C)[nH]c2ccc3c(c12)CN1CCc2cc(OC)ccc2C1C3 (stereo not shown) [Compound 3, 9-methoxy-2-methyl-6,11,12,13-tetrahydro-3H,6aH-3,12a-diaza-benzo[a]cyclopent[h]anthracene-1-carboxylic acid ethyl ester], the IC50 [1] was > 10 µM and 5 µM, the IC50 [2] was 25 µM and the IC50 [3] was > 10 µM and 25 µM. The IC50 [4] was > 10 µM and 20 µM and the IC50 [5] was 10 µM and 9 µM.
CCCc1[nH]c2ccc3c(c2c1C(=O)OCC)CN1CCc2cc(OC)ccc2C1C3 (stereo not shown) [Compound 4, 9-Methoxy-2-propyl-6,11,12,13-tetrahydro-3H6aH-3,12a-diaza-benzo[a]cyclopent[h]anthracene-1-carboxylic acid ethyl ester] was tested, and the IC50 [1] was greater than 10 µM, the IC50 [2] was 20 µM and 15 µM and the IC50 [3] was greater than 10 µM. The IC50 [4] was greater than 10 µM.
